Source: patent EP0179386A2, “1,4-Dihydropyridine hydroxyamines, process for their preparation and their use as pharmaceutical agents” (BAYER AG, priority 1984, dated 1986)

Legend:
normotonen Ratten = assay: Blood pressure before and after i.v. application in anaesthetised normotensive rats; type: in vivo; conditions: Rattus norvegicus, iv, 1 mg/kg i.v., read-out: BD: Blutdrucksenkung in % bei normotonen Ratten
Method: Die erfindungsgemäßen neuen Verbindungen werden Ratten mit einer Dosis von 1 mg/kg intravenös appliziert und der Blutdruck vor und nach der Applikation bestimmt.

[1] = system: Isoprenalin stimulierten Ratten; assay: Lowering of heart rate in rats stimulated with subcutaneous isoprenaline; type: in vivo; conditions: anaesthetised rats, 1 mg/kg i.v., heart rate stimulated by subcutaneous isoprenaline
Method: In einem zweiten Test wird die Herzfrequenz von Ratten durch subkutane Applikation von Isoprenalin stimuliert. Dann werden die erfindungsgemäßen Verbindungen appliziert (1 mg/kg i.v.) und 'der Effekt auf die Erniedrigung der Herzfrequenz gemessen.

| SMILES | inhibition in vivo at 1 mg/kg (normotonen Ratten) [%] | HR: Erniedrigung der Herzfrequenz in absoluten Zahlen bei Isoprenalin stimulierten Ratten (subkutane Applikation) [1] |
| --- | --- | --- |
| CC1=C(C(=O)OCCNCC(O)COc2cccc3ccccc23)C(c2cccc([N+](=O)[O-])c2)C(C(=O)OC(C)C)=C(C)N1 (centres unmarked) [Beispiel 1] | 20 to 30 | ↓↓ (40 < 65) |
| COC(=O)C1=C(C)NC(C)=C(C(=O)OCCCCCNCC(O)COc2cccc3ccccc23)C1c1cccc([N+](=O)[O-])c1 (centres unmarked) [Beispiel 16] | 10 to 20 | ↓ (15 - < 40) |
| COC(=O)C1=C(C)NC(C)=C(C(=O)OCCOCCNCC(O)COc2cccc3ccccc23)C1c1cccc([N+](=O)[O-])c1 (centres unmarked) [Beispiel 20] | 10 to 20 | ↓↓ (40 < 65) |
| COC(=O)C1=C(C)NC(C)=C(C(=O)OCCNCC(O)COc2ccc(CC(N)=O)cc2)C1c1cccc([N+](=O)[O-])c1 (centres unmarked) [Beispiel 25] | 5 to 10 | ↓ (15 - < 40) |
| CC1=C(C(=O)OCCCNCC(O)COc2cccc3[nH]ccc23)C(c2cccc([N+](=O)[O-])c2)C(C(=O)OC(C)C)=C(C)N1 (centres unmarked) [Beispiel 26] | 10 to 20 | ↓↓↓ (65 < 100) |
| CC1=C(C(=O)OCCOCCNCC(O)COc2cccc3ccccc23)C(c2cccc([N+](=O)[O-])c2)C(C(=O)OC(C)C)=C(C)N1 (centres unmarked) [Beispiel 30] | 30 to 40 | (↓) (10) |
| CC1=C(C(=O)OCCSCCNCC(O)COc2cccc3ccccc23)C(c2cccc([N+](=O)[O-])c2)C(C(=O)OC(C)C)=C(C)N1 (centres unmarked) [Beispiel 31] | 20 to 30 | ↓↓ (40 < 65) |
| COC(=O)C1=C(C)NC(C)=C(C(=O)OCCN(C)CCCNCC(O)COc2cccc3ccccc23)C1c1cccc([N+](=O)[O-])c1 (centres unmarked) [Beispiel 32] | 10 to 20 | ↓ (15 - < 40) |
| COC(=O)C1=C(C)NC(C)=C(C(=O)OCCNCC(O)COc2cccc3ccccc23)C1c1cccc(Cl)c1 (centres unmarked) [Beispiel 68] | 20 to 30 | ↓ (15 - < 40) |
| COC(=O)C1=C(C)NC(C)=C(C(=O)OCCNCC(O)COc2cccc3ccccc23)C1c1ccccc1[N+](=O)[O-] (centres unmarked) [Beispiel 69] | 10 to 20 | ↓ (15 - < 40) |
